# In patent publication US20210059983A1, “METHODS AND MATERIALS FOR IDENTIFYING AND TREATING CANCER” (Mayo Foundation for Medical Education and Research, priority 2018, published 2021):
# Entries after “also recorded” stand apart in the source; their conditions may differ.
# Key:
# [1] = biological target: recombinant TET-2 protein (Homo sapiens, UniProt Q6N021); test: Fluorescence quenching of recombinant TET-2 protein (Stern-Volmer); assay type: binding
# Protocol: The step width was 1 nm, and the integration time was 1 second.
# All protein solutions contained 0.5 μM TET2 in PBS buffer.
# In this equation, KD was the quenching constant, and [Q] was a defined concentration of ascorbic acid. F^0 and F were the fluorescence intensities (at 328 nm) in absence and presence of ascorbic acid, respectively.
# RCC (786O) cells = test: Cell viability (Cell Titer Blue); assay type: cell-based
# Protocol: Cells were incubated at varying concentrations and at various time periods with L-ascorbic acid (Sigma-Aldrich, Cat #50-81-7) with or without catalase at 100 μg/mL (Sigma-Aldrich, Cat #9001-05-2). Viability was assessed by addition of Cell Titer Blue (Promega, Madison, Wis., USA) and measured via Fluostar Omega Microplate reader (BMG Labtech, Offenburg, Germany). […] A protocol modification to counter this interference was done as described elsewhere (Shenoy et al., Laboratory Investigation, 97:494-497 (2017)) and used in this study.
# [2] = system: ccRCC cells (786 and 769); test: Genome wide DNA methylation analysis using the HELP assay; assay type: cell-based, human
# Protocol: The HELP assay was carried out as described elsewhere ([…] et al., Nucleic Acids Res., 41(16):e157 (2013)). Intact DNA of high molecular weight was corroborated by electrophoresis on 1% agarose gel in all cases. One microgram of genomic DNA was digested overnight with either HpaII or MspI (NEB, Ipswich, Mass.). The following day, the reactions were extracted once with phenol-chloroform and resuspended in 11 μL of 10 mM Tris-HCl pH 8.0. The digested DNA was used to set up an overnight ligation of the JHpaII adapter using T4 DNA ligase. The adapter-ligated DNA was used to carry out the PCR amplification of the HpaII and MspI-digested DNA as described elsewhere ([…] et al., Nucleic Acids Res., 41(16):e157 (2013)). Both amplified fractions were submitted for labeling and hybridization onto a human hg18 custom-designed oligonucleotide array (50-mers) covering 1.3 million HpaII amplifiable fragments (HAF). All microarray hybridizations were subjected to extensive quality control. Uniformity of hybridization was evaluated using a modified version of an algorithm adapted for the NimbleGen platform, and any hybridization with strong regional artifacts was discarded. Bioinformatic analysis was done as described elsewhere (Bhattacharyya et al., Nucleic Acids Res., 41(16):[…] (2013); Suzuki et al., Genome Biol., 11(4):[…] (2010)).
# 786-O cells [3] = test: Flow cytometry for cell cycle analysis (PI); assay type: cell-based; details: high dose AA + catalase, 96 hours
# Protocol: (§1) 786-O cells were treated with high dose ascorbic acid (+catalase), and apoptosis and cell cycle dynamics were studied at the 96 hour time point. Cells were washed with Annexin buffer solution and stained with both propidium iodide (PI) and FITC-Annexin V (Life Technologies), and assayed on a BD FACS Calibur flow cytometer (BD Biosciences). Apoptosis results were analyzed with BD CellQuest software. For cell cycle analysis, cells were fixed with 70% cold ethanol and subsequently analyzed after PI staining. Analysis was performed using FlowJo software.
# RCC cells 769P = test: Measurement of 5hmC levels by LC-ESI-MS/MS; assay type: cell-based; details: 769P cells after AA treatment
# 786-O cells [4] = test: Flow cytometry for apoptosis (Annexin V/PI); assay type: cell-based; details: AA 1 mM + catalase, assay at 96 hour time point
# Protocol: as §1
# [5] = system: TET enzymatic activity in RCC cells (769P and 7860); test: In-vitro TET enzymatic activity of nuclear extracts from AA treated RCC cells (ELISA-based Epigenase 5mC Hydroxylase TET Activity kit); details: pH neutralized AA, ccRCC cell lines 769P and 7860, short exposure then 24 hour incubation in fresh media
# Protocol: Cells were treated with different concentrations of pH neutralized AA, with or without catalase. Exposure time to 1 mM AA was 2 hours (taking into account the plasma concentration curve with intravenous (i.v.) AA and potential differences between plasma concentrations with that of tumor microenvironment) followed by the cells being washed and incubated in fresh media for 24 hours. Nuclear protein was then isolated from cells using the EpiQuik nuclear extraction kit (Epigentek Group Inc, Farmingdale, N.Y., USA), according to the manufacturer's instructions. TET enzymatic activity was measured by using the Enzyme Linked ImmunoSorbent Assay (ELISA)-based Epigenase 5mC Hydroxylase TET Activity/Inhibition Assay Kit (Fluorometric) according to the manufacturer's instructions. This technique relied on the conversion of methylated products at the bottom of the wells to hydroxymethylated products by the TET enzyme present in the nuclear extract. Thus, the amount of hydroxymethylated products formed was a measure of the TET activity of the nuclear extract harvested from the cells being tested. Incubation time of nuclear lysates was 90 minutes. Six micrograms of nuclear lysate was used per well for measurement of TET activity.
# [6] = system: RCC cells (786O) xenografted; test: In vivo xenograft study with AA; design: species or system immunodeficient NSG mice; details: IV AA 1 g/kg per day, 5 days/week, 5 weeks, vs vehicle; n=10 per cohort
# Protocol: RCC cells (786O) were xenografted into immunodeficient NSG mice. After tumors were established, treatment was initiated with tail vein injections: IV AA at 1 g/kg/d or vehicle over 5 weeks (5 days dosing/week), and tumor measurements were conducted.
# [7] = 0.5 μM TET-2 alone in PBS, 20° C.
SMILES,"quenching efficiency (Stern-Volmer constant +/−SD) [1, 7] [M⁻¹]","viability, acute (short term exposure) (RCC (786O) cells; high dose AA (millimolar), 24 hours, without catalase)","viability at longer time points (RCC (786O) cells; high dose AA with catalase, longer-term exposure)","acute loss in viability with catalase co-treatment (RCC (786O) cells; high dose AA, 24 hours, with catalase 100 μg/mL)",quenching efficiency (Stern-Volmer constant +/−SD) ([1]; 0.5 μM TET-2 in presence of 23 μM 2OG) [M⁻¹],quenching efficiency (Stern-Volmer constant +/−SD) ([1]; 0.5 μM TET-2 in presence of 2OG and L2HG (23 μM each per FIG. 5D legend)) [M⁻¹],quenching efficiency (Stern-Volmer constant +/−SD) ([1]; 0.5 μM TET-2 in presence of L2HG (100 μM per FIG. 5D legend)) [M⁻¹],"reduction of the fluorescence emission signal ([1]; 132 μM AA, 0.5 μM TET-2, emission at 328 nm, excitation 280 nm, maximal quenching) [%]",Smad6 promoter methylation ([2]; 786 and 769 ccRCC cells after AA treatment),global cytosine methylation (HELP assay) ([2]; AA treated vs control ccRCC cells),cell cycle (G0/G1 arrest) (786-O cells [3]),5hmC (%5hmC) by LC-ESI-MS/MS (RCC cells 769P),apoptosis (786-O cells [4]),TET enzymatic activity [5],tumor growth [6]
O=C(O)CCC(=O)C(=O)O [2OG],15.66 ± 0.12,–,–,–,–,–,–,–,–,–,–,–,–,–,–
"O=C1O[C@H]([C@@H](O)CO)C(O)=C1O [AA, L-ascorbic acid]",21.46 ± 0.70,Acute loss in viability,reduced viability; also recorded: dose dependent and progressive loss of viability,reversed by catalase treatment,18.37 ± 0.80,17.34 ± 0.87,22.17 ± 0.68,90,demethylated,increased hypomethylation; also recorded: loss of methylation,significantly arrested in G0/G1 stage; also recorded: significant increase in G0/G1 arrest,significantly increased; also recorded: increase in 5hmC,increased apoptosis; also recorded: significant increase in apoptosis,increased after treatment; also recorded: increase in TET enzymatic activity,significantly reduced rate of ccRCC growth; also recorded: significantly delayed tumor growth
